Assay [1] deals with T1, Serine/threonine-protein kinase Nek5 (Homo sapiens) (UniProt Q6P3R8).
T1 sequence (whole entry): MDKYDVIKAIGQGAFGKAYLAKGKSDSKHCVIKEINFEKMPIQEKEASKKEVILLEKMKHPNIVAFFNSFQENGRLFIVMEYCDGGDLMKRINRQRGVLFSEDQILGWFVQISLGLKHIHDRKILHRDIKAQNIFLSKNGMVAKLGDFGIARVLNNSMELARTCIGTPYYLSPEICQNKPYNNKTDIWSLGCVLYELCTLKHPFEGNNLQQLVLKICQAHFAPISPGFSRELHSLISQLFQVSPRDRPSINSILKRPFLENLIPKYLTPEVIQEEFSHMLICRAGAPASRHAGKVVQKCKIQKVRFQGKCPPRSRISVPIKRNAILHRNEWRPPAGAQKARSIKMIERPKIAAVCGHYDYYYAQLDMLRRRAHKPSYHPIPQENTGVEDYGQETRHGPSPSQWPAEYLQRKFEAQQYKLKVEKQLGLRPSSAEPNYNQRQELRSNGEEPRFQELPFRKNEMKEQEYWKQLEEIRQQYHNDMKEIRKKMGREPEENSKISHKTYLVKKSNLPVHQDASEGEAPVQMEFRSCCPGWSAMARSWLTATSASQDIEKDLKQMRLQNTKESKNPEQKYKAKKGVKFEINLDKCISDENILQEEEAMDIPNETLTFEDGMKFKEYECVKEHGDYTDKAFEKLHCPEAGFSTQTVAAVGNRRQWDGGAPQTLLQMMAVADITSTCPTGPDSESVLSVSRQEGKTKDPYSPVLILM
In words: Inhibition of NEK5 (unknown origin) at 10 uM after 120 mins P33 radiolabeled kinase activity assay.

Assay [2] deals with Platelet-derived growth factor receptor alpha (Homo sapiens) (UniProt P16234). In words: Inhibition of PDGFRalpha (unknown origin) at 10 uM after 120 mins P33 radiolabeled kinase activity assay.
Sequence of Platelet-derived growth factor receptor alpha (Homo sapiens) (P16234 whole entry): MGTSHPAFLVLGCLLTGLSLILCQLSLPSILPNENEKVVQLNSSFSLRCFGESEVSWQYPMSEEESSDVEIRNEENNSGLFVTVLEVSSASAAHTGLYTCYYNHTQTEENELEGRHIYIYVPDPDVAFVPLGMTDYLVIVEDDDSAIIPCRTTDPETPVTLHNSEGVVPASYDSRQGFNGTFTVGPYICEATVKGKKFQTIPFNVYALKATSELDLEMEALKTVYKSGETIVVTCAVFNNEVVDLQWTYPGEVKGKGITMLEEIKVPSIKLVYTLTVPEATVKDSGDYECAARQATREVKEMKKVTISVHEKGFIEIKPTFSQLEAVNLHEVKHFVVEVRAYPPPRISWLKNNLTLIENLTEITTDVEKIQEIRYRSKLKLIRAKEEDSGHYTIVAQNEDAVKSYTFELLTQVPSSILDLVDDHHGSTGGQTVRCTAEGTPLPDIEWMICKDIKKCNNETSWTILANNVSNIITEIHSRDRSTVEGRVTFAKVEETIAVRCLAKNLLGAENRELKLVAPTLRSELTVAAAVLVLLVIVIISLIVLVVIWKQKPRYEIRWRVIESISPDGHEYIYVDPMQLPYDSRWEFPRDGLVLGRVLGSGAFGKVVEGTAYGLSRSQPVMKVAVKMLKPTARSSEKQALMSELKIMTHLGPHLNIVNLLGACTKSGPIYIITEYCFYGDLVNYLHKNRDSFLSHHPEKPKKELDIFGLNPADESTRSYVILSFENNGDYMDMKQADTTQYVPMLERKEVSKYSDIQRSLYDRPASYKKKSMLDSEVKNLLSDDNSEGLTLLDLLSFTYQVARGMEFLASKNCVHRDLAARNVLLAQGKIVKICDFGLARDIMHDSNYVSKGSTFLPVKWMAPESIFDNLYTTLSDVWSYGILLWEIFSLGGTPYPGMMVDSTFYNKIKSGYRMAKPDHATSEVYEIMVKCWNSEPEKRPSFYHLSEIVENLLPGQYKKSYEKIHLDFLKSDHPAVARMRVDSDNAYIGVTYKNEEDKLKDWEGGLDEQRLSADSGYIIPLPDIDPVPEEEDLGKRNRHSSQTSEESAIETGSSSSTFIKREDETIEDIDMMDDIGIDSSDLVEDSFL
Assay [3] has as its target T2, Mitogen-activated protein kinase kinase kinase 5 (Homo sapiens) (UniProt Q99683).
T2 sequence (whole entry): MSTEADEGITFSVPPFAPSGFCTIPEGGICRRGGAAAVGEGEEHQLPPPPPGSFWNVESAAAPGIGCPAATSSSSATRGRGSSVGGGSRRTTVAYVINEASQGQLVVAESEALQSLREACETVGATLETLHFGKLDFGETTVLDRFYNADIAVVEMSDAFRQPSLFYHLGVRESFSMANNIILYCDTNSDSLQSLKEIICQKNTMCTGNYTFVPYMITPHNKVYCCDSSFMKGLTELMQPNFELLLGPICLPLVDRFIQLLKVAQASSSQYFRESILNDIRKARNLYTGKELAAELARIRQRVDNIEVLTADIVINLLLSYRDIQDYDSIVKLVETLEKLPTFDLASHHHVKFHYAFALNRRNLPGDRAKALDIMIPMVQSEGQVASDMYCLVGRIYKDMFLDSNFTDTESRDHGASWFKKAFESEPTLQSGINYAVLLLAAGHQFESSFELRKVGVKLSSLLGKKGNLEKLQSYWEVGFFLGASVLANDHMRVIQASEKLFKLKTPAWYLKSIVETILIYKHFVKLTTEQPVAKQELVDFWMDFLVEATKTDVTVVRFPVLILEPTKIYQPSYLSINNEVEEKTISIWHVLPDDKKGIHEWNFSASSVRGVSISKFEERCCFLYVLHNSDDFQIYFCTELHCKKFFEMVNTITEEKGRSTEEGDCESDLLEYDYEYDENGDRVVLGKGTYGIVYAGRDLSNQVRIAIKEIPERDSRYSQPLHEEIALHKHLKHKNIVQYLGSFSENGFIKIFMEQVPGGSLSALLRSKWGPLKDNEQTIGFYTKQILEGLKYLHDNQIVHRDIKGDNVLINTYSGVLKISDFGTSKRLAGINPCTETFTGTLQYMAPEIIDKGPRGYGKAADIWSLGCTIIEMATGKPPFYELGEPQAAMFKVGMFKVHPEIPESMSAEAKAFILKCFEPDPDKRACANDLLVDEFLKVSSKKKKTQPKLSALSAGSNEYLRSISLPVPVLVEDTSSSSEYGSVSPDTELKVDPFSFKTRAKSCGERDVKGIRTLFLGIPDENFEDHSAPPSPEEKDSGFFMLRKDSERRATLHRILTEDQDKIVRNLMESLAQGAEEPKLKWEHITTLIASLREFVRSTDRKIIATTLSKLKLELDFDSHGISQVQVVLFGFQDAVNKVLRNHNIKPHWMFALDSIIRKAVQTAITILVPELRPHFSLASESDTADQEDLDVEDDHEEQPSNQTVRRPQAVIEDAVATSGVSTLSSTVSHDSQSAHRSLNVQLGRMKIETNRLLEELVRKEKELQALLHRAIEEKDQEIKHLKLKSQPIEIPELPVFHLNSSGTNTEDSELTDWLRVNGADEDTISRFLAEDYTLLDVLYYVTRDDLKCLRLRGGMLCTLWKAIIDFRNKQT
In words: Inhibition of ASK1 (unknown origin) at 10 uM after 120 mins P33 radiolabeled kinase activity assay.

In assay [4] the target is Focal adhesion kinase 1 (Homo sapiens) (UniProt Q05397). In words: Inhibition of FAK (unknown origin) at 10 uM after 120 mins P33 radiolabeled kinase activity assay.
Sequence of Focal adhesion kinase 1 (Homo sapiens) (Q05397 2-1052 limits assumed): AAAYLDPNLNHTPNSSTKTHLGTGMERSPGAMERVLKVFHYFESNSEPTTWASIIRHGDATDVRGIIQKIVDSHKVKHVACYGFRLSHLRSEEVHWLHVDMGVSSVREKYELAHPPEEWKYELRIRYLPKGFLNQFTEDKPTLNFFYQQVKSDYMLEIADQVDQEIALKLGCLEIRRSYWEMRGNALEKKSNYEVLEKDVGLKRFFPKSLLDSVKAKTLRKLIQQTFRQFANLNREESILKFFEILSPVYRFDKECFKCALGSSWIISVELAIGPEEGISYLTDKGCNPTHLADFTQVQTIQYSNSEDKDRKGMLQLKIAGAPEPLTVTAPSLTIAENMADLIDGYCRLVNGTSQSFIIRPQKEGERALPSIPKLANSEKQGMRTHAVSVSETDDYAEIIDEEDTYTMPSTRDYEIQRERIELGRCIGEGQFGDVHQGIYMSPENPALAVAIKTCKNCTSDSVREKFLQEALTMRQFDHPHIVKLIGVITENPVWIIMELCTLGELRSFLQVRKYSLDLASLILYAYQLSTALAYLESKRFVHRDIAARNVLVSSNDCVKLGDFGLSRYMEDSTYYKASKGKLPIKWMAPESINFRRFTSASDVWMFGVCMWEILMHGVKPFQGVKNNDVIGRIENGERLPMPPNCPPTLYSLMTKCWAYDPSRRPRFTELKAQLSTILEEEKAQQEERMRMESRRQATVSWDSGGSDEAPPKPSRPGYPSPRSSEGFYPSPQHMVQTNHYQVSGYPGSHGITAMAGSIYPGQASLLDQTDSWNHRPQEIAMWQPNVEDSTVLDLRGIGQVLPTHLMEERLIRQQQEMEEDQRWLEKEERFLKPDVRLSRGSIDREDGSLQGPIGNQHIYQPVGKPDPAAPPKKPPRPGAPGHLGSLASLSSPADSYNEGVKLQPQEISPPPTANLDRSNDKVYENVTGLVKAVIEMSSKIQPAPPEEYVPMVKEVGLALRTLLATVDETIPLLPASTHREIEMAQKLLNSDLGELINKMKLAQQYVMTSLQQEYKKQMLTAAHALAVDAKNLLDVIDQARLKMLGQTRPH
The target in assay [5] is T3, Protein kinase C iota type (Homo sapiens) (UniProt P41743).
T3 sequence (whole entry): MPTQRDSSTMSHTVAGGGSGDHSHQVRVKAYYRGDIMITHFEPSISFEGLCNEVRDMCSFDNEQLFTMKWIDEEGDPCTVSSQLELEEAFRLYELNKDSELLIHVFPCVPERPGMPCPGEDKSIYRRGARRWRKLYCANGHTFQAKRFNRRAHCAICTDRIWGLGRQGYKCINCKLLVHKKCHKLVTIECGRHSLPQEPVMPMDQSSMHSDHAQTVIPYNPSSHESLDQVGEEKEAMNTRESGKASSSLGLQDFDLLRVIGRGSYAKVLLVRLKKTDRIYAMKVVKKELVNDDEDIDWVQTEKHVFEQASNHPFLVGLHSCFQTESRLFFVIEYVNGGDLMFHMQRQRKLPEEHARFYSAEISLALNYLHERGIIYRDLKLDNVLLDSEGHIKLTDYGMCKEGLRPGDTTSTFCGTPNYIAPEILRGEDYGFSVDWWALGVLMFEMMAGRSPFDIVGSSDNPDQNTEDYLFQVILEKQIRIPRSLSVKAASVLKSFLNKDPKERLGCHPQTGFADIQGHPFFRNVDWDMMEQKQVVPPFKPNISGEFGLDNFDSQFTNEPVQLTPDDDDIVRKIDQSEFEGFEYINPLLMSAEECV
In words: Inhibition of PKCiota (unknown origin) at 10 uM after 120 mins P33 radiolabeled kinase activity assay.

The target of assay [6] is Receptor-interacting serine/threonine-protein kinase 3 (Homo sapiens) (UniProt Q9Y572). In words: Inhibition of RIPK3 (unknown origin) at 10 uM after 120 mins P33 radiolabeled kinase activity assay.
Sequence of Receptor-interacting serine/threonine-protein kinase 3 (Homo sapiens) (Q9Y572 whole entry, looked up): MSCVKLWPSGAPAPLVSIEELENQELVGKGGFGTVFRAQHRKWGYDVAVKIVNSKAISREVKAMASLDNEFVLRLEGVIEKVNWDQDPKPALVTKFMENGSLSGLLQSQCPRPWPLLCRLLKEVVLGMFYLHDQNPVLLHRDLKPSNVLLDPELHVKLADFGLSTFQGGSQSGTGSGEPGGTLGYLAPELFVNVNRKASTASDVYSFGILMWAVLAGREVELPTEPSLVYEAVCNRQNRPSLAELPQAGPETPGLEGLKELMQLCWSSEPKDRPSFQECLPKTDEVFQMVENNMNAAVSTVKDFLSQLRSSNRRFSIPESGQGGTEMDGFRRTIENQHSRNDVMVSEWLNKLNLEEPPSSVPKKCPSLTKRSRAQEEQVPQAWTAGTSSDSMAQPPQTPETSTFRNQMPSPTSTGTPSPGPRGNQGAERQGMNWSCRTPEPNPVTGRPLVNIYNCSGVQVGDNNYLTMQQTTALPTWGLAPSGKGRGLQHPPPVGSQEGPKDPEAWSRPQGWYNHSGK
For assay [7], the target named is Mitogen-activated protein kinase kinase kinase 20 (Homo sapiens) (UniProt Q9NYL2). In words: Inhibition of ZAK (unknown origin) at 10 uM after 120 mins P33 radiolabeled kinase activity assay.
Sequence of Mitogen-activated protein kinase kinase kinase 20 (Homo sapiens) (Q9NYL2 2-800 limits assumed): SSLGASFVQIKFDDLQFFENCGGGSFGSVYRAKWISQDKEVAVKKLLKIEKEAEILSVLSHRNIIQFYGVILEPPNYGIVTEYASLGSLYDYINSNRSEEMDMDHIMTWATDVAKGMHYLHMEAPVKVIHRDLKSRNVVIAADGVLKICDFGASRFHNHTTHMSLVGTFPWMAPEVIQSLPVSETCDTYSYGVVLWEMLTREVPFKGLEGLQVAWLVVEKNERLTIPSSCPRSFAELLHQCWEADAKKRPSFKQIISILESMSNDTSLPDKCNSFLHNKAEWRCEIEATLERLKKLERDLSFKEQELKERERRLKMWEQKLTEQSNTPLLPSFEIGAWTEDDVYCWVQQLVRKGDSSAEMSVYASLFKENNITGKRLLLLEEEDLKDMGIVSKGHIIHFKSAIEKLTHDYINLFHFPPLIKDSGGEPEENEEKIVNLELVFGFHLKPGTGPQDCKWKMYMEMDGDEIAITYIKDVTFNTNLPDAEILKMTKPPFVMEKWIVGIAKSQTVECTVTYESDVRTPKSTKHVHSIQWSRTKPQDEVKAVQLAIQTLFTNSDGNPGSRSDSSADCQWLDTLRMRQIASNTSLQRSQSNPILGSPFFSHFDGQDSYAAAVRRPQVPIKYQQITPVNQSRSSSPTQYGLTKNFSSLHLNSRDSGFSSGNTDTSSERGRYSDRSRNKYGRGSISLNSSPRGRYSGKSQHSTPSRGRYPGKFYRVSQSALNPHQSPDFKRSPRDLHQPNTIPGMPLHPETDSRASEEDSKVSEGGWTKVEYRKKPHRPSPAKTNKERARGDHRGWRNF

Consider `CS(=O)(=O)c1cccc(Nc2nccc(-c3sc(N4CCOCC4)nc3-c3cccc(NS(=O)(=O)c4c(F)cccc4F)c3)n2)c1`, for which the inhibition (commonly the change of the read-out against control, counted positive when it falls) in assay [1] turned out to be 50.5%; in assay [2] it was 94.1%; in assay [3], 9.88%; in assay [4], 15%; in assay [5], 9.85%; in assay [6], 83.1%. In addition, the inhibition in assay [7] was 99.8%.
As to `CC(C)(C)c1cc(NC(=O)Nc2ccc(Oc3ccncc3)cc2)no1`, the inhibition in assay [1] came out at 27.3%; in assay [2], 98.3%; in assay [3] it was 19.8%; in assay [4] it was 11.7%; in assay [5], 4.69%; in assay [6], 81.4%. The compound also gave an inhibition in assay [7] of 99.8%.
For `COCCNC(=O)c1ccc2c(c1)nc(-c1cnc(-c3ccc(Cl)cc3)[nH]1)n2CCOC`, the inhibition was 9.53% in assay [1]; 17.2% in assay [2]; 19.7% in assay [3]; 0.5% in assay [4]; 5.69% in assay [5]; 27.6% in assay [6]. Besides, the inhibition in assay [7] turned out to be 38.8%.

Source of the values: ChEMBL document CHEMBL3627608, “Crystal structures of human RIP2 kinase catalytic domain complexed with ATP-competitive inhibitors: Foundations for understanding inhibitor selectivity” (Bioorg Med Chem, 2015).
